Values of other authors, collected in paper PMC8761874 (European Journal of Nuclear Medicine and Molecular Imaging, 2022).
Where two headings read alike, the source gives them in different places.

B1: MK-7684: anti-TIGIT mAb in a phase I trial (antibody, chains of the INN, looked up, V domains shown)
VH: EVQLVQSGAEVKKPGSSVKVSCKASGYTFSSYVMHWVRQAPGQGLEWIGYIDPYNDGAKYAQKFQGRVTLTSDKSTSTAYMELSSLRSEDTAVYYCARGGPYGWYFDVWGQGTTVTVSS
VL: DIQMTQSPSSLSASVGDRVTITCRASEHIYSYLSWYQQKPGKVPKLLIYNAKTLAEGVPSRFSGSGSGTDFTLTISSLQPEDVATYYCQHHFGSPLTFGQGTRLEIK

Tests used:
[1] = tested on: PD-L1-positive non-small cell lung cancer; conditions: tiragolumab plus atezolizumab, ref [15]
[2] = tested on: patients with advanced solid tumors; conditions: ref [13]

Molecule	objective response rate (ORR) ([1]; subgroup with high PD-L1 expression) [%]	objective response rate (ORR) [1] [%]	partial response rate ([2]; in combination with pembrolizumab, n = 8/43) [%]	partial response rate ([2]; monotherapy, n = 1/34) [%]
tiragolumab: anti-TIGIT mAb, given with atezolizumab in the CITYSCAPE trial	66	37		
B1			19	3
